Like-named read-outs stand apart in the source and are kept apart here.
Assays:
[1] = molecular target: T1, HarmOR40 (Helicoverpa armigera, UniProt A0A7T3KBF4); test: Xenopus oocyte two-electrode voltage clamp, HarmOR40 + Orco; format: cell-based; details: HarmOR40; dose response in oocytes; unit M printed in text only; read-out: EC50
T1 sequence (A0A7T3KBF4 1-401): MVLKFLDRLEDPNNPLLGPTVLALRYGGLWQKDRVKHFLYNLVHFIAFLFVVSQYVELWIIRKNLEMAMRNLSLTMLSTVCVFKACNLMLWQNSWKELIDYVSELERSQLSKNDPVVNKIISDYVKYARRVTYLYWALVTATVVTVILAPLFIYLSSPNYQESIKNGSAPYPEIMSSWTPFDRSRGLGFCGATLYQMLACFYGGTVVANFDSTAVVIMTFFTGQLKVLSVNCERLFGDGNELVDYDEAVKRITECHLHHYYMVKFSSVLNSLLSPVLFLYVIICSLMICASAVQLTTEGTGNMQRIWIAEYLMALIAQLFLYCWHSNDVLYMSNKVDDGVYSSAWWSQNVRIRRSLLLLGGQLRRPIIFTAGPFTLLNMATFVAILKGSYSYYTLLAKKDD
Description: (§1) In order to expand our analysis on the response properties of HarmORs, we conducted dose–response analyses for the 28 functional HarmORs. […] Six HarmORs (OR3, 22, 48, 50, 56, and 66) could not be activated by any ligand at 10^−5 M. For the other 22 HarmORs, dose–response curves were generated and EC50 values of their major ligands were calculated (fig. 2A and supplementary table S2, Supplementary Material online). The HarmOR repertoire was highly efficient in terpene detection, since the lowest EC50 values were obtained for such compounds. Many of these terpenes have been proposed to be defensive chemicals of plants. […] DMNT is also one of the oviposition deterring compounds found in larval frass of some Lepidoptera species such as S. littoralis ([Anderson et al. 1993]).
(§2) Functional characterization of individual ORs was performed by heterologous expression in Xenopus oocytes combined with a two-electrode voltage-clamp system ([Wang et al. 2010]). Briefly, the full-length gene of each OR and Orco were subcloned into the eukaryotic expression vector pT7TS. cRNAs were generated from linearized expression vectors using the mMESSAGE mMACHINE T7 kit (Ambion, Austin, TX). Then, the cRNA mixture of ORx and Orco (27.6 ng each) was injected (Nanoliter 2010, WPI Inc., Sarasota, FL) into oocytes (stage V–VII). The respective Orcos of different species were used for functional studies of OR42 orthologs except for the four butterfly species (V. tameamea, P. xuthus, D. plexippus, and P. rapae), in which we used the Orco from P. xuthus. After incubation in nutrient solution at 18 °C for 3–5 days, the response profile of each oocyte to multiple plant odorants was recorded via a two-electrode voltage clamp (OC-725C oocyte clamp, Warner Instruments, Hamden, CT) at a holding potential of −80 mV. Data were acquired by using a Digidata 1440 A and were analyzed by pCLAMP 10.2 software (Axon Instruments Inc., Union City, CA).
(§3) Stock solutions of each odorant were prepared at 1 M using DMSO as a solvent, and each odorant was diluted in 1× Ringer’s solution to the indicated concentrations for electrophysiological recording. For functional screening of each HarmOR, a panel of 67 odorants belonging to three types of chemical classes: terpenes, aromatics, and aliphatics (short-chain fatty acid) were used (supplementary table S1, Supplementary Material online). For functional studies of OR42 orthologs from different species, six odorants including PAA, benzaldehyde, (E)-2-hexen-1-al, cinnamaldehyde, 2-phenylethanol, and heptanal were used.

[2] = system: HarmOR repertoire; test: Responses of the 28 functional HarmORs across odorant doses (PCA of oocyte currents); format: cell-based, Helicoverpa armigera; details: odorant 10^−7 M
From the text: Vectors quantifying the responses of the 28 ORs to each odorant were projected onto a 3D landscape. This 3D representation captured 78.34% (10^−4 M), 65.11% (10^−5 M), 68.89% (10^−6 M), and 84.52% (10^−7 M) of the variation in the original 28D data set across different odorant concentrations. […] In addition, the capacity of the H. armigera odor space was highly dependent on odorant concentration. As the concentrations of odorants decreased, their positions in the odor space converged, with the ability to discriminate different odorants diminishing.
as §2, §3
Graphs and data statistics of OR response spectra, dose responses, EAG, and behavioral experiments were generated by Prism 7 (GraphPad Software, La Jolla, CA). A heat map was generated in Excel 2010 (Microsoft Corporation, WA). […] For tuning breadth analysis, the kurtosis values (K) were calculated by SPSS 22 (SPSS Inc., Chicago, IL) and were used to define the tuning spectra width, where smaller K values represent broader tuning spectra (fig. 1B). […]

[3] = molecular target: HarmOR26 (Helicoverpa armigera, UniProt A0A075T633); test: Xenopus oocyte two-electrode voltage clamp, HarmOR26 + Orco; format: cell-based; details: dose response in oocytes, unit M printed in b12 only
Chain of HarmOR26 (A0A075T633 1-408): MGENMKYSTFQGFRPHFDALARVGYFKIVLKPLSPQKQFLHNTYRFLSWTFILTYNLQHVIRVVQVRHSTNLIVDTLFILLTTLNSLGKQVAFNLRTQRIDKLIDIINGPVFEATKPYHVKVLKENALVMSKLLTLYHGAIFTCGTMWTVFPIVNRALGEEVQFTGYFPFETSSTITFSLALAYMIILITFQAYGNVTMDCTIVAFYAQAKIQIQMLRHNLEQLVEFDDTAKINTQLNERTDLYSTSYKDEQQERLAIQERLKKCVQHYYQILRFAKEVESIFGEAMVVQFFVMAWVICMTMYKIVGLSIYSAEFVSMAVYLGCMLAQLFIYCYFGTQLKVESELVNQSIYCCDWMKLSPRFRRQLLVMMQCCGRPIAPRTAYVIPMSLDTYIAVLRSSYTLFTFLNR
Description: as §1
(§4) Functional characterization of individual ORs was performed by heterologous expression in Xenopus oocytes combined with a two-electrode voltage-clamp system ([Wang et al. 2010]). […] After incubation in nutrient solution at 18 °C for 3–5 days, the response profile of each oocyte to multiple plant odorants was recorded via a two-electrode voltage clamp (OC-725C oocyte clamp, Warner Instruments, Hamden, CT) at a holding potential of −80 mV. Data were acquired by using a Digidata 1440 A and were analyzed by pCLAMP 10.2 software (Axon Instruments Inc., Union City, CA). […]

[4] = molecular target: HarmOR55 (Helicoverpa armigera, UniProt A0A7T3N2G6); test: Xenopus oocyte two-electrode voltage clamp, HarmOR55 + Orco; format: cell-based; details: dose response in oocytes, unit M
Chain of HarmOR55 (A0A7T3N2G6 entry or part of it): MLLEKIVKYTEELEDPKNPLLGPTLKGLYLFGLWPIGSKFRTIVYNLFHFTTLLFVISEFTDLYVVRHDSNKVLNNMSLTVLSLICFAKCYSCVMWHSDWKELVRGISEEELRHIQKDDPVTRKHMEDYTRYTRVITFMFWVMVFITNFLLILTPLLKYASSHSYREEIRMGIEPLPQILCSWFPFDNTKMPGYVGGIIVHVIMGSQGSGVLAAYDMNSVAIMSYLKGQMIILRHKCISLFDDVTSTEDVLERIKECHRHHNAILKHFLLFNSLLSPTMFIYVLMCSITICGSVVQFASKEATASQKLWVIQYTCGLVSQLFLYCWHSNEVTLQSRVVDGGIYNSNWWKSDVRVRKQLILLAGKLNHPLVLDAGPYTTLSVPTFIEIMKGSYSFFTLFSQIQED
Description: as §1, §4

[5] = molecular target: HarmOR7 (Helicoverpa armigera, UniProt A0A7T3KAD7); test: Xenopus oocyte two-electrode voltage clamp, HarmOR7 + Orco; format: cell-based
Chain of HarmOR7 (A0A7T3KAD7 1-411): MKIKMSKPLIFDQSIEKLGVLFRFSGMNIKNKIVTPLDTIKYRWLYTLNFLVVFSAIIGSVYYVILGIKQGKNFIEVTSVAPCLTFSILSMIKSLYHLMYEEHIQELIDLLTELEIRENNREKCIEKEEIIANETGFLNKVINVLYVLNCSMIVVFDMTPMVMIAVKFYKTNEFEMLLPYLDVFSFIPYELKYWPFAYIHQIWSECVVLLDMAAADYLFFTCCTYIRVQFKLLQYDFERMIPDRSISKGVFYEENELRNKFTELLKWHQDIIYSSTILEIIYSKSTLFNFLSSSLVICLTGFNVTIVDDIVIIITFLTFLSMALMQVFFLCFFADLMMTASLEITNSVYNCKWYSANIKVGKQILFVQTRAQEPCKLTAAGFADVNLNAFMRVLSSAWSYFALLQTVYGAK
Description: as §1, §4

[6] = molecular target: HarmOR31 (Helicoverpa armigera, UniProt A0A7T3N2E9); test: Xenopus oocyte two-electrode voltage clamp, HarmOR31 + Orco; format: cell-based
Chain of HarmOR31 (A0A7T3N2E9 entry or part of it): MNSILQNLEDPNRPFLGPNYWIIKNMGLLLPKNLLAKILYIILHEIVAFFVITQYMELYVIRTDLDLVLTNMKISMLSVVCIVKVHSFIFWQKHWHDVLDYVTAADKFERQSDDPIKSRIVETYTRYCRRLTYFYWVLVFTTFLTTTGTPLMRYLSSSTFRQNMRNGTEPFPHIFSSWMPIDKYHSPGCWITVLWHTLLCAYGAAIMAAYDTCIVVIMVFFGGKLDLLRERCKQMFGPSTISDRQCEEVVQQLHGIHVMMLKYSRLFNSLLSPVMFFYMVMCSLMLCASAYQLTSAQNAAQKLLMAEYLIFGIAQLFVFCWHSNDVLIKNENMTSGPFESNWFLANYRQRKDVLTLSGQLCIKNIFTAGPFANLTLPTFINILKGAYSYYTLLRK
From the text: In order to expand our analysis on the response properties of HarmORs, we conducted dose–response analyses for the 28 functional HarmORs. […] Many of these terpenes have been proposed to be defensive chemicals of plants.
Briefly, the full-length gene of each OR and Orco were subcloned into the eukaryotic expression vector pT7TS. cRNAs were generated from linearized expression vectors using the mMESSAGE mMACHINE T7 kit (Ambion, Austin, TX). […] The respective Orcos of different species were used for functional studies of OR42 orthologs except for the four butterfly species (V. tameamea, P. xuthus, D. plexippus, and P. rapae), in which we used the Orco from P. xuthus.
as §3

[7] = molecular target: HarmOR8 (Helicoverpa armigera, UniProt A0A7T3N2E2); test: Xenopus oocyte two-electrode voltage clamp, HarmOR8 + Orco; format: cell-based; details: dose response in oocytes, unit M
Chain of HarmOR8 (A0A7T3N2E2 1-406): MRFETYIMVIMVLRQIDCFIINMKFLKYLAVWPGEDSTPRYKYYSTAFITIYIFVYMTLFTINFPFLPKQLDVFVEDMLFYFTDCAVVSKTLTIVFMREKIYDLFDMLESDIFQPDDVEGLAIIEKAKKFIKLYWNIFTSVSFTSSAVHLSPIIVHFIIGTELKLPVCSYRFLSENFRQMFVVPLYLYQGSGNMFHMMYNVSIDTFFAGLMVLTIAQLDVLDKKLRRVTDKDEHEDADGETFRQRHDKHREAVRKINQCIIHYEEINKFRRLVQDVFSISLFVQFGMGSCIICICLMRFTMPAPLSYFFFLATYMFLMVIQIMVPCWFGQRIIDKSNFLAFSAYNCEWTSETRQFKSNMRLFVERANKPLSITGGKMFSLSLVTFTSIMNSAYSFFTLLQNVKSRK
Description: as §1, §4

[8] = molecular target: HarmOR63 (Helicoverpa armigera, UniProt A0A7T3N0P9); test: Xenopus oocyte two-electrode voltage clamp, HarmOR63 + Orco; format: cell-based; details: dose response in oocytes, unit M
Chain of HarmOR63 (A0A7T3N0P9 1-407): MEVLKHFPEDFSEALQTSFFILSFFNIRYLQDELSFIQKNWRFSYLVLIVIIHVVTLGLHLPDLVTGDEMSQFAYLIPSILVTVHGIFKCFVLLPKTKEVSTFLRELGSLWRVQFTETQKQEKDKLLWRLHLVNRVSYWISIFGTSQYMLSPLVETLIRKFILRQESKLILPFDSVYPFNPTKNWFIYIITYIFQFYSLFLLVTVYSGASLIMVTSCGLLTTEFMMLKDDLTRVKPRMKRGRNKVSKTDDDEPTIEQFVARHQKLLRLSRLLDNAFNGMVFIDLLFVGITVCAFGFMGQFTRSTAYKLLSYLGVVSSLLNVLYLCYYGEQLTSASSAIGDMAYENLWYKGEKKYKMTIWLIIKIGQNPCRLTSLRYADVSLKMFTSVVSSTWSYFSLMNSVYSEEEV
Description: as §1, §4

[9] = molecular target: T2, HarmOR60 (Helicoverpa armigera, UniProt A0A7T3N1B9); test: Xenopus oocyte two-electrode voltage clamp, HarmOR60 + Orco; format: cell-based
T2 sequence (A0A7T3N1B9 1-391): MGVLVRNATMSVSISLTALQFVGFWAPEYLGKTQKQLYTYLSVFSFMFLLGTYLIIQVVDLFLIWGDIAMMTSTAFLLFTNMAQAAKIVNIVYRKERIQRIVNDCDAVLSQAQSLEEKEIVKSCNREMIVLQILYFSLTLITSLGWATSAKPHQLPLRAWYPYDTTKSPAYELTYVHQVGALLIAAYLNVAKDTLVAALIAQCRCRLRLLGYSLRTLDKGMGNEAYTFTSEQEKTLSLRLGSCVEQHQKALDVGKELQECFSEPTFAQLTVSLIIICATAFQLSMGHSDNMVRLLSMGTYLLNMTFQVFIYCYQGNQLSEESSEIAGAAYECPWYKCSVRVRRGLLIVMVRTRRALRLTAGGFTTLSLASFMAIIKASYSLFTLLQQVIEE
Description: as §1
as §2, with “CA). […]” for “CA).”

[10] = molecular target: HarmOR35 (Helicoverpa armigera, UniProt A0A7T3N1A8); test: Xenopus oocyte two-electrode voltage clamp, HarmOR35 + Orco; format: cell-based
Chain of HarmOR35 (A0A7T3N1A8 entry or part of it): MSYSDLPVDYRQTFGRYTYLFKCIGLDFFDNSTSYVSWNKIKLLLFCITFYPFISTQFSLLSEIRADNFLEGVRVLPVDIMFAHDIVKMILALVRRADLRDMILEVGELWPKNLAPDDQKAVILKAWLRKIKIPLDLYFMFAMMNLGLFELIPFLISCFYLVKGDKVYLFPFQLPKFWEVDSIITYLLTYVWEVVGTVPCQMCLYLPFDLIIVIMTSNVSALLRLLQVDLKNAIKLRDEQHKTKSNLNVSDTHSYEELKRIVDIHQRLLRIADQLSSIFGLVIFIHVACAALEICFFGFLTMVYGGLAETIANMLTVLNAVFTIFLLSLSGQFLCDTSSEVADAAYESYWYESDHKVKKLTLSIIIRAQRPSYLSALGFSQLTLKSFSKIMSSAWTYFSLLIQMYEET
Description: as §1, §4

[11] = molecular target: HarmOR25 (Helicoverpa armigera, UniProt A0A7T3KAG7); test: Xenopus oocyte two-electrode voltage clamp, HarmOR25 + Orco; format: cell-based
Chain of HarmOR25 (A0A7T3KAG7 1-398): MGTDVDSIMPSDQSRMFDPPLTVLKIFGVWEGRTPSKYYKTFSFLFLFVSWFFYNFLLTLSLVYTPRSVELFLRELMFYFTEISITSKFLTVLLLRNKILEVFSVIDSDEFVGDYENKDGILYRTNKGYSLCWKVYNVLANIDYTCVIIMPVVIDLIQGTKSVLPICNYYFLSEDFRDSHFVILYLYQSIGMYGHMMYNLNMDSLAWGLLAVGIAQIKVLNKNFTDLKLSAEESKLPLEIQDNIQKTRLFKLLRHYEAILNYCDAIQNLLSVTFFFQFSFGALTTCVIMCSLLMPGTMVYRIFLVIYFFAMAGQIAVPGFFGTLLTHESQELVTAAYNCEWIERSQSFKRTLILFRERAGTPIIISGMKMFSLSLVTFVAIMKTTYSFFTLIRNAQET
Description: as §1, §4

[12] = molecular target: HarmOR29 (Helicoverpa armigera, UniProt A0A7T3KAG0); test: Xenopus oocyte two-electrode voltage clamp, HarmOR29 + Orco; format: cell-based; details: dose response in oocytes, unit M
Chain of HarmOR29 (A0A7T3KAG0 1-395): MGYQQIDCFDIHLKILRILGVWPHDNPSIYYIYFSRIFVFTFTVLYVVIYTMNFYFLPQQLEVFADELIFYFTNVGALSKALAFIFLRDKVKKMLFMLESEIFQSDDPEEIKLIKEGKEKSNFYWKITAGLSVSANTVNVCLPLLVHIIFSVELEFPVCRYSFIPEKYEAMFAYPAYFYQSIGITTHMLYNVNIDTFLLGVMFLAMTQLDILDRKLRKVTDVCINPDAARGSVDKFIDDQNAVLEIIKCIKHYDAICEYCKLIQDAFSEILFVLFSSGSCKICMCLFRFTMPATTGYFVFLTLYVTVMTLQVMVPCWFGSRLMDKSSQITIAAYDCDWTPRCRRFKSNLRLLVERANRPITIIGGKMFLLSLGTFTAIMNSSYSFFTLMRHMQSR
Description: as §1, §4

## C=CC(C)(O)CC/C=C(\C)CCC=C(C)C (stereo not shown) [(E)-Nerolidol]
[1]
  EC50: 12.5 µM
[2]
  response of the HarmOR repertoire: still responded
[3]
  EC50: 0.0289 µM
[4]
  EC50: 88.1 µM

## CC(=O)OCc1ccccc1 [Benzyl acetate]
[5]; HarmOR7, dose response in oocytes, unit M, read-out: EC50
  EC50: 60.7 µM

## COC(=O)Cc1ccccc1 [Methyl phenylacetate]
[5]
  EC50: 107 µM
[6]
  EC50: 29.5 µM

## C=CCc1ccc(OC)c(OC)c1 [Methyl eugenol]
[7]
  EC50: 106 µM

## C=C1CC[C@H]2O[C@]2(C)CC[C@@H]2[C@@H]1CC2(C)C [(-)-Caryophyllene oxide]
[8]
  EC50: 52.1 µM

## C=CCc1ccc(O)c(OC)c1 [Eugenol]
[9]; HarmOR60, dose response in oocytes, unit M
  EC50: 1.72 µM
[9]; clade B
  main ligand of HarmOR60: main ligand
[10]
  EC50: 42.5 µM
[11]; HarmOR25, dose response in oocytes, unit M
  EC50: 81.6 µM
[11]; clade E
  main ligand of HarmOR25: main ligand
[12]
  EC50: 18.9 µM

## C=C1CC/C=C(\C)CC[C@@H]2[C@@H]1CC2(C)C [(-)-trans-Caryophyllene]
[8]
  EC50: 88.2 µM
